The source of these data is ChEMBL document CHEMBL1201862, “PubChem BioAssay data set” (2004).

Structures are written as SMILES.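 Cells were grown in 96-well plates and exposed to each compound for 48 hours at five concentrations; endpoints were interpolated linearly between bracketing concentrations, or set to the highest concentration if not reached. GI50 is the concentration that inhibits growth by half.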 Calls of active or inactive are those of the source. Rule as the data show it: active = GI50 up to about 1.1 µM and inactive = higher.

Test systems include NCI-H460; NCI-H522; A549; SK-MEL-2; HCC 2998; M14; RPMI-8226; ACHN; HCT-15; UACC-62; SR; Malme-3M; NCI-H23; MOLT-4; OVCAR-5; OVCAR-8; MCF7; SW-620; IGROV-1; SK-MEL-28.
Holding throughout (assay): DTP human tumour cell line panel, 48 h

Turning to `C/C=C(\C)C(=O)OC1/C=C(\C)CC/C=C(\C)CC2OC(=O)C(C)(OC(C)=O)C12` (stereo not given), the GI50 in the test on NCI-H460, in the test on NCI-H522, in the test with A549, in the test on SK-MEL-2, in the test on HCC 2998 and in the test with M14 was > 100 µM (inactive) each time. For the same molecule, the GI50 (in general, the concentration at which growth is held to half of that of the control) in the test with RPMI-8226 is > 100 µM (inactive); in the test on ACHN, > 100 µM (inactive); in the test with HCT-15, greater than 100 µM; in the test with UACC-62 it was > 100 µM (inactive); in the test with SR, > 100 µM (inactive); in the test with Malme-3M, > 100 µM (inactive). The GI50 in the test on NCI-H23, with MOLT-4, in the test on OVCAR-5, in the test with OVCAR-8, in the test with MCF7 and in the test on SW-620 was > 100 µM (inactive) each time. In addition, the GI50 in the test with IGROV-1 and in the test on SK-MEL-28 was > 100 µM (inactive) in each case.

Regarding `COc1ccc(C2c3cc4c(cc3C(O)C3CCC(=O)N23)OCO4)cc1` (stereo not given), the GI50 in the test on NCI-H460, with NCI-H522, with A549, in the test on SK-MEL-2, in the test on HCC 2998 and in the test with M14 was > 100 µM (inactive) each time. In addition, the GI50 was > 100 µM (inactive) in the test on RPMI-8226; > 100 µM (inactive) in the test on ACHN; greater than 100 µM in the test on HCT-15; > 100 µM (inactive) in the test with UACC-62; > 100 µM (inactive) with SR; > 100 µM (inactive) with Malme-3M. Moreover, the GI50 in the test with NCI-H23, in the test with MOLT-4, with OVCAR-5, in the test on OVCAR-8, with MCF7 and in the test on SW-620 was > 100 µM (inactive) throughout. The GI50 in the test with IGROV-1 and with SK-MEL-28 was > 100 µM (inactive) each time.

For the molecule `Cc1c(Cc2ccccc2)c(Cc2ccccc2)c(C)[s+]1[O-]`, the GI50 is 27.5 µM (inactive) with NCI-H460; 23.7 µM (inactive) in the test on NCI-H522; 30.2 µM (inactive) in the test on A549; 16.9 µM (inactive) in the test with SK-MEL-2; 19.6 µM (inactive) with HCC 2998; 21.2 µM (inactive) with M14. Moreover, the GI50 was 19.7 µM (inactive) in the test on RPMI-8226; 32.7 µM (inactive) in the test on ACHN; 31.3 µM with HCT-15; 14.5 µM (inactive) with UACC-62; 19.8 µM (inactive) in the test with SR; 33.2 µM (inactive) in the test on Malme-3M. The GI50 with NCI-H23 was 28.3 µM (inactive); in the test with MOLT-4, 14.7 µM (inactive); with OVCAR-5, 20.1 µM (inactive); with OVCAR-8, 41.3 µM (inactive); with MCF7 it was 20.3 µM (inactive); with SW-620 it was 26.4 µM (inactive). Moreover, the figures for the GI50 with IGROV-1 and in the test on SK-MEL-28 were 36.8 µM (inactive) and 30.3 µM (inactive), respectively.

Consider `CN(c1c(Cl)cccc1Cl)S(=O)(=O)c1ccccc1[N+](=O)[O-]`, for which the GI50 with NCI-H460, in the test on NCI-H522, in the test with A549, with SK-MEL-2, in the test on HCC 2998 and in the test on M14 was > 100 µM (inactive) in each case. For the same molecule, the GI50 in the test on RPMI-8226 is > 100 µM (inactive); in the test on ACHN, > 100 µM (inactive); with HCT-15, greater than 100 µM; in the test on UACC-62 it was > 100 µM (inactive); with SR, > 100 µM (inactive); in the test on Malme-3M, > 100 µM (inactive). Also, the GI50 in the test on NCI-H23, in the test with MOLT-4, in the test with OVCAR-5, in the test on OVCAR-8, with MCF7 and in the test with SW-620 was > 100 µM (inactive) each time. In addition, the GI50 with IGROV-1 and with SK-MEL-28 was > 100 µM (inactive) throughout.
